Reference: publication PMC9312958, “A Novel and Selective Dopamine Transporter Inhibitor, (S)-MK-26, Promotes Hippocampal Synaptic Plasticity and Restores Effort-Related Motivational Dysfunctions” (Biomolecules, 2022)
Values joined by “and” are separate entries in the source; they are usually repeats but may differ in a detail not shown here. Identical values can stand only once. Like-named read-outs stand apart in the source and are kept apart here.

Test: Plasma and brain compound levels and pharmacokinetic parameters after i.p. administration
Type: in vivo, male Sprague–Dawley rats
Conditions: rat, 10 mg/kg i.p.; for concentration at 10 h: read-out: Clast
Method: The bioavailability of (S)-MK-26 after intraperitoneal (i.p.) administration in male Sprague–Dawley rats (260–351 g) was outsourced to Evotec (Toulouse CEDEX, France, Study Number VDD10431). (S)-MK-26 at dose of 10 mg/kg of body weight was i.p. administered and blood samples and brains were collected at 0.083, 0.25, 0.5, 1, 3, 7, 10, and 24 h post-administration (3 rats per time point). Plasma and brain levels of (S)-MK-26 were measured by LC-MS by a standard validated protocol defined by the contractor, and the pharmacokinetic parameters were calculated from individual concentrations by WinNonLin7.0 (Phoenix64), a non-compartmental model.

[1] = male, Sprague-Dawley, ip, brain
[2] = male, Sprague-Dawley, ip, plasma

[O-][S@@+](Cc1cncs1)C(c1cccc(Cl)c1)c1cccc(Cl)c1 [(S)-MK-26, (S)-5-(((B(3-chlorophenyl)methyl)sulphinyl)methyl)thiazole]
detectable up to (time) (brain and plasma): 10 h | Tlast (brain): 10.0 h | time of maximum mean brain concentration (brain): 15 min | maximum mean brain concentration (brain, at 15 min): 634 ± 140 ng/g | Kp (male, Sprague-Dawley, brain and plasma, ip, read-out: mean brain to plasma concentration ratio): 1.12 ± 0.19 | AUC(0-t) [1]: 1960 ng·h/mL and 5.14 µM·h | Cmax [1]: 634 ng/mL and 1.67 µM | Tmax [1]: 15 min | concentration at 10 h [1]: 19.2 nM | AUC(0-t) [2]: 1710 ng·h/mL and 4.5 µM·h | Cmax [2]: 624 ng/mL and 1.64 µM | Tmax [2]: 30 min | concentration at 10 h [2]: 15.7 nM | Tlast (plasma): 10.0 h | time to peak mean plasma concentration (plasma): ≤ 30 min | adverse effects during the pharmacokinetic study: No adverse effects were observed
